Measured values reported in PubChem BioAssay (NCI).
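Exposure lasted 48 hours, with cells grown in 96-well plates and compounds tested at five concentrations. TGI denotes the concentration required for complete inhibition of growth.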

Legend:
Assay in all cases: NCI anticancer screen, dose series, 48 h
K-562 leukemia = tested on: K-562 leukemia
KM20L2 colon = tested on: KM20L2 colon
COLO 205 colon = tested on: COLO 205 colon
DMS 273 small cell lung = tested on: DMS 273 small cell lung
HL-60(TB) leukemia = tested on: HL-60(TB) leukemia
CCRF-CEM leukemia = tested on: CCRF-CEM leukemia
OVCAR-4 ovarian = tested on: OVCAR-4 ovarian
XF 498 CNS = tested on: XF 498 CNS
SW-620 colon = tested on: SW-620 colon
ACHN renal = tested on: ACHN renal
SR leukemia = tested on: SR leukemia
M14 melanoma = tested on: M14 melanoma
KM12 colon = tested on: KM12 colon
RPMI-8226 leukemia = tested on: RPMI-8226 leukemia
HOP-18 NSCLC = tested on: HOP-18 NSCLC
HCT-15 colon = tested on: HCT-15 colon
HOP-92 NSCLC = tested on: HOP-92 NSCLC
MOLT-4 leukemia = tested on: MOLT-4 leukemia
NCI-H226 lung = tested on: NCI-H226 lung
IGROV1 ovarian = tested on: IGROV1 ovarian
LXFL 529 NSCLC = tested on: LXFL 529 NSCLC
HT29 colon = tested on: HT29 colon
A498 renal = tested on: A498 renal
MALME-3M melanoma = tested on: MALME-3M melanoma
HOP-62 NSCLC = tested on: HOP-62 NSCLC
SF-268 CNS = tested on: SF-268 CNS
U251 CNS = tested on: U251 CNS
OVCAR-8 ovarian = tested on: OVCAR-8 ovarian
SN12C renal = tested on: SN12C renal
CAKI-1 renal = tested on: CAKI-1 renal
EKVX NSCLC = tested on: EKVX NSCLC
DLD-1 colon = tested on: DLD-1 colon
SNB-19 CNS = tested on: SNB-19 CNS
NCI-H23 lung = tested on: NCI-H23 lung
HCC-2998 colon = tested on: HCC-2998 colon
SNB-78 CNS = tested on: SNB-78 CNS
UACC-62 melanoma = tested on: UACC-62 melanoma
HCT-116 colon = tested on: HCT-116 colon
RXF 393 renal = tested on: RXF 393 renal
OVCAR-5 ovarian = tested on: OVCAR-5 ovarian
786-0 renal = tested on: 786-0 renal
SNB-75 CNS = tested on: SNB-75 CNS
UACC-257 melanoma = tested on: UACC-257 melanoma
OVCAR-3 ovarian = tested on: OVCAR-3 ovarian
A549 NSCLC = tested on: A549 NSCLC
DMS 114 small cell lung = tested on: DMS 114 small cell lung
SK-MEL-28 melanoma = tested on: SK-MEL-28 melanoma
NCI-H460 lung = tested on: NCI-H460 lung
SK-MEL-2 melanoma = tested on: SK-MEL-2 melanoma
UO-31 renal = tested on: UO-31 renal
M19-MEL melanoma = tested on: M19-MEL melanoma
SF-295 CNS = tested on: SF-295 CNS
SF-539 CNS = tested on: SF-539 CNS
NCI-H522 lung = tested on: NCI-H522 lung
TK-10 renal = tested on: TK-10 renal
SK-OV-3 ovarian = tested on: SK-OV-3 ovarian
SK-MEL-5 melanoma = tested on: SK-MEL-5 melanoma
LOX IMVI melanoma = tested on: LOX IMVI melanoma

NC(=O)c1ccccc1NC(=O)C(=O)C(C(=O)c1ccc(Cl)c(Cl)c1)C1OC(=O)c2ccccc21 (stereo unspecified)
TGI (K-562 leukemia): > 100 µM
TGI (KM20L2 colon): > 100 µM
TGI (COLO 205 colon): > 100 µM
TGI (DMS 273 small cell lung): > 100 µM
TGI (HL-60(TB) leukemia): > 100 µM
TGI (CCRF-CEM leukemia): > 100 µM
TGI (OVCAR-4 ovarian): > 100 µM
TGI (XF 498 CNS): > 100 µM
TGI (SW-620 colon): > 100 µM
TGI (ACHN renal): > 100 µM
TGI (SR leukemia): > 100 µM
TGI (M14 melanoma): > 100 µM
TGI (KM12 colon): > 100 µM
TGI (RPMI-8226 leukemia): > 100 µM
TGI (HOP-18 NSCLC): > 100 µM
TGI (HCT-15 colon): > 100 µM
TGI (HOP-92 NSCLC): > 100 µM
TGI (MOLT-4 leukemia): > 100 µM
TGI (NCI-H226 lung): 56.3 µM
TGI (IGROV1 ovarian): > 100 µM
TGI (LXFL 529 NSCLC): > 100 µM
TGI (HT29 colon): > 100 µM
TGI (A498 renal): > 100 µM
TGI (MALME-3M melanoma): 80.4 µM
TGI (HOP-62 NSCLC): > 100 µM
TGI (SF-268 CNS): > 100 µM
TGI (U251 CNS): > 100 µM
TGI (OVCAR-8 ovarian): > 100 µM
TGI (SN12C renal): > 100 µM
TGI (CAKI-1 renal): > 100 µM
TGI (EKVX NSCLC): > 100 µM
TGI (DLD-1 colon): > 100 µM
TGI (SNB-19 CNS): > 100 µM
TGI (NCI-H23 lung): > 100 µM
TGI (HCC-2998 colon): > 100 µM
TGI (SNB-78 CNS): > 100 µM
TGI (UACC-62 melanoma): > 100 µM
TGI (HCT-116 colon): 39 µM
TGI (RXF 393 renal): 45.7 µM
TGI (OVCAR-5 ovarian): > 100 µM
TGI (786-0 renal): > 100 µM
TGI (SNB-75 CNS): 83.2 µM
TGI (UACC-257 melanoma): > 100 µM
TGI (OVCAR-3 ovarian): > 100 µM
TGI (A549 NSCLC): > 100 µM

Cc1cc2c(C)[nH]nc2c(C(=O)O)c1C
TGI (K-562 leukemia): > 100 µM
TGI (KM20L2 colon): > 100 µM
TGI (DMS 114 small cell lung): > 100 µM
TGI (COLO 205 colon): > 100 µM
TGI (DMS 273 small cell lung): > 100 µM
TGI (HL-60(TB) leukemia): > 100 µM
TGI (CCRF-CEM leukemia): > 100 µM
TGI (SK-MEL-28 melanoma): > 100 µM
TGI (OVCAR-4 ovarian): > 100 µM
TGI (XF 498 CNS): > 100 µM
TGI (SW-620 colon): > 100 µM
TGI (ACHN renal): > 100 µM
TGI (NCI-H460 lung): > 100 µM
TGI (SR leukemia): > 100 µM
TGI (KM12 colon): > 100 µM
TGI (RPMI-8226 leukemia): > 100 µM
TGI (HCT-15 colon): > 100 µM
TGI (MOLT-4 leukemia): > 100 µM
TGI (SK-MEL-2 melanoma): > 100 µM
TGI (IGROV1 ovarian): > 100 µM
TGI (LXFL 529 NSCLC): > 100 µM
TGI (HT29 colon): > 100 µM
TGI (A498 renal): > 100 µM
TGI (HOP-62 NSCLC): > 100 µM
TGI (U251 CNS): > 100 µM
TGI (OVCAR-8 ovarian): > 100 µM
TGI (SN12C renal): > 100 µM
TGI (CAKI-1 renal): > 100 µM
TGI (UO-31 renal): > 100 µM
TGI (M19-MEL melanoma): > 100 µM
TGI (EKVX NSCLC): > 100 µM
TGI (DLD-1 colon): > 100 µM
TGI (SNB-19 CNS): > 100 µM
TGI (NCI-H23 lung): > 100 µM
TGI (HCC-2998 colon): > 100 µM
TGI (SNB-78 CNS): > 100 µM
TGI (UACC-62 melanoma): > 100 µM
TGI (HCT-116 colon): > 100 µM
TGI (RXF 393 renal): > 100 µM
TGI (786-0 renal): > 100 µM
TGI (SNB-75 CNS): > 100 µM
TGI (UACC-257 melanoma): > 100 µM
TGI (OVCAR-3 ovarian): > 100 µM
TGI (SF-295 CNS): > 100 µM
TGI (A549 NSCLC): > 100 µM
TGI (SF-539 CNS): > 100 µM

COC(=O)C(CCCN1C(=O)c2ccccc2C1=O)C(=O)OC
TGI (K-562 leukemia): > 100 µM
TGI (KM20L2 colon): > 100 µM
TGI (DMS 114 small cell lung): > 100 µM
TGI (COLO 205 colon): > 100 µM
TGI (DMS 273 small cell lung): > 100 µM
TGI (HL-60(TB) leukemia): > 100 µM
TGI (CCRF-CEM leukemia): > 100 µM
TGI (NCI-H522 lung): > 100 µM
TGI (SK-MEL-28 melanoma): > 100 µM
TGI (OVCAR-4 ovarian): > 100 µM
TGI (XF 498 CNS): > 100 µM
TGI (SW-620 colon): > 100 µM
TGI (ACHN renal): > 100 µM
TGI (NCI-H460 lung): > 100 µM
TGI (M14 melanoma): > 100 µM
TGI (KM12 colon): > 100 µM
TGI (HOP-18 NSCLC): > 100 µM
TGI (HCT-15 colon): > 100 µM
TGI (HOP-92 NSCLC): > 100 µM
TGI (MOLT-4 leukemia): > 100 µM
TGI (NCI-H226 lung): > 100 µM
TGI (TK-10 renal): > 100 µM
TGI (SK-MEL-2 melanoma): > 100 µM
TGI (IGROV1 ovarian): > 100 µM
TGI (SK-OV-3 ovarian): > 100 µM
TGI (LXFL 529 NSCLC): > 100 µM
TGI (HT29 colon): > 100 µM
TGI (A498 renal): > 100 µM
TGI (MALME-3M melanoma): > 100 µM
TGI (HOP-62 NSCLC): > 100 µM
TGI (SF-268 CNS): > 100 µM
TGI (U251 CNS): > 100 µM
TGI (OVCAR-8 ovarian): > 100 µM
TGI (SN12C renal): > 100 µM
TGI (CAKI-1 renal): > 100 µM
TGI (UO-31 renal): > 100 µM
TGI (M19-MEL melanoma): > 100 µM
TGI (EKVX NSCLC): > 100 µM
TGI (DLD-1 colon): > 100 µM
TGI (SNB-19 CNS): > 100 µM
TGI (NCI-H23 lung): > 100 µM
TGI (SK-MEL-5 melanoma): > 100 µM
TGI (HCC-2998 colon): > 100 µM
TGI (SNB-78 CNS): > 100 µM
TGI (UACC-62 melanoma): > 100 µM
TGI (HCT-116 colon): > 100 µM
TGI (RXF 393 renal): > 100 µM
TGI (OVCAR-5 ovarian): > 100 µM
TGI (786-0 renal): > 100 µM
TGI (LOX IMVI melanoma): > 100 µM
TGI (SNB-75 CNS): > 100 µM
TGI (UACC-257 melanoma): > 100 µM
TGI (OVCAR-3 ovarian): > 100 µM
TGI (SF-295 CNS): > 100 µM
TGI (A549 NSCLC): > 100 µM
TGI (SF-539 CNS): > 100 µM

CC1=C(Cl)C=CP(=O)(Oc2ccccc2)C1 (stereo unspecified)
TGI (K-562 leukemia): > 10 µM
TGI (KM20L2 colon): > 100 µM
TGI (DMS 114 small cell lung): 90.9 µM
TGI (COLO 205 colon): > 100 µM
TGI (DMS 273 small cell lung): 75.9 µM
TGI (HL-60(TB) leukemia): > 10 µM
TGI (CCRF-CEM leukemia): > 10 µM
TGI (NCI-H522 lung): 29.9 µM
TGI (SK-MEL-28 melanoma): > 100 µM
TGI (OVCAR-4 ovarian): > 100 µM
TGI (XF 498 CNS): > 100 µM
TGI (SW-620 colon): > 100 µM
TGI (ACHN renal): > 100 µM
TGI (NCI-H460 lung): > 100 µM
TGI (M14 melanoma): 38.2 µM
TGI (KM12 colon): > 100 µM
TGI (HOP-18 NSCLC): 89.6 µM
TGI (HCT-15 colon): > 100 µM
TGI (HOP-92 NSCLC): > 100 µM
TGI (MOLT-4 leukemia): > 10 µM
TGI (SK-MEL-2 melanoma): > 100 µM
TGI (IGROV1 ovarian): > 100 µM
TGI (LXFL 529 NSCLC): 28.7 µM
TGI (MALME-3M melanoma): > 100 µM
TGI (HOP-62 NSCLC): > 100 µM
TGI (SF-268 CNS): > 100 µM
TGI (U251 CNS): > 100 µM
TGI (OVCAR-8 ovarian): 60.6 µM
TGI (CAKI-1 renal): > 100 µM
TGI (UO-31 renal): > 100 µM
TGI (EKVX NSCLC): > 100 µM
TGI (SNB-19 CNS): > 100 µM
TGI (NCI-H23 lung): > 100 µM
TGI (SK-MEL-5 melanoma): > 100 µM
TGI (HCC-2998 colon): > 100 µM
TGI (SNB-78 CNS): > 100 µM
TGI (UACC-62 melanoma): > 100 µM
TGI (HCT-116 colon): > 100 µM
TGI (OVCAR-5 ovarian): > 100 µM
TGI (LOX IMVI melanoma): > 100 µM
TGI (UACC-257 melanoma): > 100 µM
TGI (OVCAR-3 ovarian): > 100 µM
TGI (SF-295 CNS): > 100 µM
TGI (A549 NSCLC): > 100 µM
